Test results: article PMC9966435, “Synthesis and Biological Evaluation of 3-Amidoquinuclidine Quaternary Ammonium Compounds as New Soft Antibacterial Agents” (Pharmaceuticals, 2023)
In brackets after ≈: the same amount, converted by molar mass. Read-outs that look alike come from different tables or passages of the source.

Legend:
Type in all cases: cell-based
[1] = system: Staphylococcus aureus ATCC33591; assay: Broth microdilution MIC in Mueller Hinton broth; settings: Staphylococcus aureus
[2] = system: Enterococcus faecalis ATCC29212; assay: Broth microdilution MIC in Mueller Hinton broth; settings: Enterococcus faecalis
[3] = system: Escherichia coli ATTC25922; assay: Broth microdilution MIC in Mueller Hinton broth; settings: Escherichia coli
[4] = system: Salmonella enterica food isolate; assay: microbe, parasite or virus in culture; settings: Salmonella enterica, read-out: Minimum Inhibitory Concentration (MIC) Salmonella enterica food isolate
[5] = system: Bacillus cereus ATCC14579; assay: Broth microdilution MIC in Mueller Hinton broth; settings: Bacillus cereus
[6] = system: Staphylococcus aureus Clinical/MRSA; assay: Broth microdilution MIC in Mueller Hinton broth; settings: Staphylococcus aureus, MRSA, read-out: Minimum Inhibitory Concentration (MIC) Staphylococcus aureus Clinical/MRSA
[7] = system: Pseudomonas aeruginosa ATTC27853; assay: Broth microdilution MIC in Mueller Hinton broth; settings: Pseudomonas aeruginosa
[8] = system: Listeria monocytogenes ATCC7644; assay: Broth microdilution MIC in Mueller Hinton broth; settings: Listeria monocytogenes
[9] = system: Staphylococcus aureus ATCC25923; assay: Broth microdilution MIC in Mueller Hinton broth
[10] = system: Staphylococcus aureus ATCC 25923; assay: MIC in Dulbecco's Modified Eagle Medium (DMEM)
Experimental: The overnight culture of Staphylococcus aureus ATCC 25923 was diluted in fresh Mueller Hinton broth (MHB) and placed in an orbital shaker incubator (Gallenkamp, Cambridge, UK) at 37 °C and 220 rpm. Once the culture reached the exponential growth phase (OD600 = 0.3–0.5), cells were centrifuged (Heraeus, Biofuge primo R, Hanau, Germany) at room temperature at a speed of 4000× g. The cell pellet was resuspended in tempered Dulbecco’s Modified Eagle Medium (DMEM) to a final concentration of 5 × 10^5 CFU/mL. Then, 50 µL of as-prepared cells were added to a 96-well plate containing twofold serial dilutions of tested compounds in DMEM medium in the range of concentrations from 125 µM to 0.12 µM. The minimum inhibitory concentration (MIC) was visually assessed the next day. The MIC was determined as the lowest concentration of the substance at which no apparent bacterial growth was seen.

[11] = system: Staphylococcus aureus ATCC 25923; assay: Time-resolved growth analysis
Experimental: The growth kinetic experiments were performed to further investigate the efficacy of the selected 3-amidoquinnuclidine candidates. The candidates from series 1 (QC14-Me, QC14-Ally, QC16-Me, and QC16-Ally) and series 3 (QBn-C12, QBn-C14, and QBn-C16) were incubated at MIC and ½ MIC for 350 min with an appropriate number of CFU of Staphylococcus aureus ATCC 25923 at 37 °C with shaking. Time-resolved growth analysis was performed along with the control, in which bacterial growth was monitored without the presence of the antibacterial agent.
Time-resolved growth analysis was performed in the microtiter plate reader (Bio-Tek EL808, Winooski, VT, USA) by incubating the selected antibacterial agent with Staphylococcus aureus ATCC 25923. The exponentially grown culture (OD600 = 0.3–0.5) of S. aureus ATCC 25923 was diluted to a final concentration of 5 × 10^4 CFU/mL. Then, 50 µL of such prepared cell culture was added to the 96-well plates containing the MIC or ½ MIC of the compound to be tested. The plates were incubated at 37 °C for 350 min in the microplate reader with shaking. OD600 was recorded at 10 min intervals. The results obtained represent the mean of two independent experiments performed in triplicate.

[12] = system: Staphylococcus aureus ATCC 25923; assay: MIC in cation-adjusted Mueller Hinton broth (CA-MHB)
Experimental: A representative bacterial strain, Staphylococcus aureus ATCC 25923, was grown overnight in Mueller Hinton broth (MHB). The following day, the culture was diluted in tempered MHB and allowed to grow at 37 °C with constant shaking of 220 rpm. Once the bacterial culture reached the exponential growth phase (OD600 = 0.3–0.5), it was diluted in the cation-adjusted Mueller Hinton broth (CA-MHB) containing MgCl2 (10 mM) to the final cell count of 5 × 10^5 CFU/mL. The previously prepared 96-well plate contained twofold serial dilutions of the compounds to be tested, dissolved in CA-MHB, in the concentrations range of 125 µM to 0.12 µM. Then, 50 µL of the bacterial cells diluted in CA-MHB was pipetted in each well of the plate and incubated overnight at 37 °C with constant shaking at 220 rpm. The next day, the minimum inhibitory concentration (MIC) was determined as the lowest concentration of the compound that prevented supposed bacterial growth in the wells. Visually determined results of antibacterial activity were confirmed by the addition of 20 µL 2-(4-iodophenyl)-3-(4-nitrophenyl)-5-phenyltetrazolium chloride (INT) reagent (6 mg/mL). The MIC value of a drug in CA-MHB containing NaCl (85 mM) was determined using the same experimental technique.

[13] = ATCC33591, MHB, read-out: Minimum Inhibitory Concentration (MIC) Staphylococcus aureus ATCC33591
[14] = ATCC29212, MHB, read-out: Minimum Inhibitory Concentration (MIC) Enterococcus faecalis ATCC29212
[15] = ATTC25922, MHB, read-out: Minimum Inhibitory Concentration (MIC) Escherichia coli ATTC25922
[16] = ATCC14579, MHB, read-out: Minimum Inhibitory Concentration (MIC) Bacillus cereus ATCC14579
[17] = ATTC27853, MHB, read-out: Minimum Inhibitory Concentration (MIC) Pseudomonas aeruginosa ATTC27853
[18] = ATCC7644, MHB, read-out: Minimum Inhibitory Concentration (MIC) Listeria monocytogenes ATCC7644
[19] = Staphylococcus aureus, ATCC25923, MHB, read-out: Minimum Inhibitory Concentration (MIC) Staphylococcus aureus ATCC25923
[20] = ATCC33591, read-out: Minimum Inhibitory Concentration (MIC) Staphylococcus aureus ATCC33591
[21] = ATCC29212, read-out: Minimum Inhibitory Concentration (MIC) Enterococcus faecalis ATCC29212
[22] = ATTC25922, read-out: Minimum Inhibitory Concentration (MIC) Escherichia coli ATTC25922
[23] = ATCC14579, read-out: Minimum Inhibitory Concentration (MIC) Bacillus cereus ATCC14579
[24] = ATTC27853, read-out: Minimum Inhibitory Concentration (MIC) Pseudomonas aeruginosa ATTC27853
[25] = ATCC7644, read-out: Minimum Inhibitory Concentration (MIC) Listeria monocytogenes ATCC7644
[26] = Staphylococcus aureus, ATCC25923, read-out: Minimum Inhibitory Concentration (MIC) Staphylococcus aureus ATCC25923
[27] = ATCC25923, read-out: MIC CA-MHB
[28] = MHB, read-out: Minimum Inhibitory Concentration (MIC) Staphylococcus aureus ATCC25923
[29] = ATCC25923, Dulbecco's Modified Eagle Medium, S. aureus ATCC 25923, read-out: MIC DMEM
[30] = ATCC25923, cation-adjusted MHB, S. aureus ATCC 25923, read-out: MIC CA-MHB

| Structure (SMILES) | MIC [1, 13] [µM] | MIC [2, 14] [µM] | MIC [3, 15] [µM] | MIC [4] [µM] | MIC [5, 16] [µM] | MIC [6] [µM] | MIC [7, 17] [µM] | MIC [8, 18] [µM] | MIC [9, 19] [µM] | MIC [1, 20] [µM] | MIC [2, 21] [µM] | MIC [3, 22] [µM] | MIC [5, 23] [µM] | MIC [7, 24] [µM] | MIC [8, 25] [µM] | MIC [9, 26] [µM] | MIC [9, 28] [µM] | further results |
| --- | --- | --- | --- | --- | --- | --- | --- | --- | --- | --- | --- | --- | --- | --- | --- | --- | --- | --- |
| CCCCCCCCCCCC(=O)NC1CN2CCC1CC2 (stereo not shown) [QC12] | 100 (≈ 30.9 µg/mL) | > 100 | > 100 | > 100 | > 100 | > 100 | > 100 | 100 (≈ 30.9 µg/mL) | > 100 |  |  |  |  |  |  |  |  |  |
| CC(=O)NC1CN2CCC1CC2 (racemic) [QAc, (±)3-acetamidoquinuclidine] |  |  |  | > 100 |  | > 100 |  |  |  | > 100 | > 100 | > 100 | > 100 | > 100 | > 100 | > 100 |  |  |
| CCCCCCCCCCCCCCCC[N+]12CCC(CC1)C(NC(C)=O)C2 (stereo not shown) [QAc-C16] |  | 31 |  | > 125 |  | > 125 |  | 8 |  | > 125 |  | > 125 | > 125 | > 125 |  | > 125 |  |  |
| CCCCCCCCCCCCCC(=O)NC1C[N+]2(C)CCC1CC2 (stereo not shown) [QC14-Me] |  |  |  |  |  | 60 |  |  |  | 100 | 30 | 100 | 50 | > 125 | 20 | 40 | 40 | MIC ([10]; ATCC25923, read-out: MIC DMEM): 12 µM; inhibition of bacterial growth at ½ MIC [11]: unable to inhibit bacterial growth; MIC [12, 27]: 40 µM; MIC ([4]; MHB): > 125 µM |
| C=CC[N+]12CCC(CC1)C(NC(=O)CCCCCCCCCCC)C2 (stereo not shown) [QC12-Ally] |  |  |  | > 125 |  | > 125 |  |  |  | > 125 | > 125 | > 125 | > 125 | > 125 | > 125 | > 125 |  |  |
| O=C(NC1CN2CCC1CC2)c1ccccc1 (racemic) [QBn, (±)3-benzamidoquinuclidine] | > 100 | > 100 | > 100 | > 100 | > 100 | > 100 | > 100 | > 100 | > 100 |  |  |  |  |  |  |  |  |  |
| CCCCCCCCCCCCCC[N+]12CCC(CC1)C(NC(=O)c1ccccc1)C2 (stereo not shown) [QBn-C14] | 31 | 8 | 31 | 31 | 63 | 31 | 63 | 4 | 31 |  |  |  |  |  |  |  | 31 | MIC [10, 29]: 3 µM; MIC [12, 30]: 25 µM |
| CCCCCCCCCCCCCCCC(=O)NC1CN2CCC1CC2 (stereo not shown) [QC16] | 100 (≈ 36.5 µg/mL) | > 100 | > 100 | > 100 | > 100 | 250 (≈ 91.2 µg/mL) | > 100 | 125 (≈ 45.6 µg/mL) | 62.5 (≈ 22.8 µg/mL) |  |  |  |  |  |  |  |  |  |
| CCCCCCCCCCCCCC(=O)NC1CN2CCC1CC2 (stereo not shown) [QC14] | 50 (≈ 16.8 µg/mL) | 17 (≈ 5.72 µg/mL) | 50 (≈ 16.8 µg/mL) | 100 (≈ 33.7 µg/mL) | 25 (≈ 8.41 µg/mL) | 50 (≈ 16.8 µg/mL) | > 100 | 25 (≈ 8.41 µg/mL) | 60 (≈ 20.2 µg/mL) |  |  |  |  |  |  |  |  |  |
| CCCCCCCCCCCCCCCC[N+]12CCC(CC1)C(NC(=O)c1ccccc1)C2 (stereo not shown) [QBn-C16] | 31 | 4 | 31 | 63 | 63 | 31 | > 125 | 4 | 63 |  |  |  |  |  |  |  | 63 | MIC [10, 29]: 3 µM; MIC [12, 30]: 6 µM |
| CCCCCCCCCCCC[N+]12CCC(CC1)C(NC(C)=O)C2 (stereo not shown) [QAc-C12] |  |  |  | > 125 |  | > 125 |  |  |  | > 125 | > 125 | > 125 | > 125 | > 125 | > 125 | > 125 |  |  |
| CCCCCCCCCCCCCC[N+]12CCC(CC1)C(NC(C)=O)C2 (stereo not shown) [QAc-C14] |  | 63 |  | > 125 |  | > 125 |  | 63 |  | > 125 |  | > 125 | > 125 | > 125 |  | > 125 |  |  |
| CCCCCCCCCCCCCCCC(=O)NC1C[N+]2(C)CCC1CC2 (stereo not shown) [QC16-Me] |  |  |  |  |  | 31 |  |  |  | 25 | 100 | > 100 | > 100 | > 125 | 8 | 16 | 16 | MIC ([10]; ATCC25923, read-out: MIC DMEM): 6 µM; MIC [12, 27]: 16 µM; MIC ([4]; MHB): > 125 µM |
| CCCCCCCCCCCC[N+]12CCC(CC1)C(NC(=O)c1ccccc1)C2 (stereo not shown) [QBn-C12] | 63 | 31 | 63 | 63 | 63 | 63 | > 125 | 31 | 63 |  |  |  |  |  |  |  | 63 | MIC [10, 29]: 3 µM; MIC [12, 30]: 25 µM |
| CCCCCCCCCCCC(=O)NC1C[N+]2(C)CCC1CC2 (stereo not shown) [QC12-Me] |  | 100 | 100 | > 125 | 100 | 100 |  | 100 | 100 | > 125 |  |  |  | > 125 |  |  |  |  |
| NC1CN2CCC1CC2 (stereo not shown) [QNH2, 3-aminoquinuclidine] |  |  |  | > 100 |  | > 100 |  |  |  | > 100 | > 100 | > 100 | > 100 | > 100 | > 100 | > 100 |  |  |
